Results from US11939403B2, “Peptide-peptoid scaffolds” (The Regents of the University of California, priority 2020, dated 2024).
Values after ≈ are worked out from the molar mass of the structure shown. Values joined by “and” are separate entries in the source; they are usually repeats but may differ in a detail not shown here. Identical values can stand only once. Like-named read-outs stand apart in the source and are kept apart here. Marks after values point to notes of the source that are not given here. Square brackets hold non-standard residues; d marks the D form. Peptide text beside a SMILES is read from it. Gly(N-CH2-oxan-4-yl) = O=C(O)CNCC1CCOCC1; NCyclohexylmethylGly = O=C(O)CNCC1CCCCC1; NMeL = CN[C@@H](CC(C)C)C(=O)O; NMeA = CN[C@@H](C)C(=O)O; NEtG = CCNCC(=O)O

Tests used:
[1] = biological target: T1, P-gp (Homo sapiens, UniProt P08183); conditions: MDCK, 10 μM
T1 sequence (P08183 whole entry): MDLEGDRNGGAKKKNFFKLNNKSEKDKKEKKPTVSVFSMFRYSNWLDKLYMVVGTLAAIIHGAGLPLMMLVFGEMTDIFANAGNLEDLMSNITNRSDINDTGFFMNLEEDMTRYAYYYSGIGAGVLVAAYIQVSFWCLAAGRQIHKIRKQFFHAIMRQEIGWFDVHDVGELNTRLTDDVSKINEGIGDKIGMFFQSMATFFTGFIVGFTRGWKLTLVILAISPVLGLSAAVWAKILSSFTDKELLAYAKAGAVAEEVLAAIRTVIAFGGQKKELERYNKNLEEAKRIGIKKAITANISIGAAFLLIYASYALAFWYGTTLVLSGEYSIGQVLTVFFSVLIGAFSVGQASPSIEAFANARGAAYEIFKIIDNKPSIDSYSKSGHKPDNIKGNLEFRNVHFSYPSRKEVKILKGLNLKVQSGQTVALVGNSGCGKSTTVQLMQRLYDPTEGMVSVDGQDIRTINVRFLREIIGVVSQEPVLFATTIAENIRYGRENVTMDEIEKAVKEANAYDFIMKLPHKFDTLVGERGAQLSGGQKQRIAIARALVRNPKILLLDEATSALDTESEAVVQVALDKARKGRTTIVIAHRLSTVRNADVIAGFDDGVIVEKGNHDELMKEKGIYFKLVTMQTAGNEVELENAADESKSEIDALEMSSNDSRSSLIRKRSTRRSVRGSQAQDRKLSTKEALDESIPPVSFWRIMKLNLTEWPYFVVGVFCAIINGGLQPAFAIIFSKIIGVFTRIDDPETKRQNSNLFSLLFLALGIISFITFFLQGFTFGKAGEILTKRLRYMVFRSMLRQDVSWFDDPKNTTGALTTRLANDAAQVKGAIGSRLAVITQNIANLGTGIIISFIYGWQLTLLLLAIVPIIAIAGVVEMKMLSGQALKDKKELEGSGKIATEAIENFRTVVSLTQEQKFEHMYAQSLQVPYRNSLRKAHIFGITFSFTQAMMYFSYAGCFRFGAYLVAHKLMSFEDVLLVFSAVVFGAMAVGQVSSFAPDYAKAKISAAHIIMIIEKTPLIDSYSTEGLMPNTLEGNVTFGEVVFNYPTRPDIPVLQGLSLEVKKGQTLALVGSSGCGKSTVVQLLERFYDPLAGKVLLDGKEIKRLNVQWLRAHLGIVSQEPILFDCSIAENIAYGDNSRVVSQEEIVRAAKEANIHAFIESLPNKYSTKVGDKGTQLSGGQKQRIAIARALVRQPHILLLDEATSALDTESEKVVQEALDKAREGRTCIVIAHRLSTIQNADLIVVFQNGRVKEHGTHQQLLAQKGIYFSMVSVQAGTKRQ

[2] = Microsomal stability; assay type: in vitro ADME; conditions: remaining rate after 30 min of incubation with pooled liver microsomes (0.1 mg/mL, rats); for remaining at 0.5 h: rat
[3] = Oral bioavailability in mice; assay type: in vivo; conditions: for bioavailability / BA: mouse; for bioavailability: po
Text: Based on their permeabilities in PAMPA and MDCK cells, the in vivo pharmacokinetics of 5 of these 6 pure compound library members were investigated (B03 was not included in the oral PK study, because of its low (small) PAMPA and MDCK permeabilities). […] To test whether metabolism and efflux were the main factors contributing to the low oral bioavailability (BA), mice were pretreated with either the CYP inhibitor […] (ABT), the P-gp inhibitor elacridar (GF120918), or a combination of both the CYP and P-gp inhibitors. […] Combining the inhibitors also produced oral bioavailabilities that reflected the compounds' relative PAMPA permeabilities.

[4] = Aqueous solubility, Japanese Pharmacopoeia Second Fluid (pH 6.8); assay type: physicochemical; conditions: for Aq. Sol.: Japanese Pharmacopoeia Second Fluid (pH 6.8); for solubility: Japanese Pharmacopoeia Second Fluid
Method: (§1) For each of these six pure compounds, calculated (atomistic) octanol/water partition coefficient (A Log P), aqueous solubility (Aq. Sol), PAMPA and MDCK permeabilities, experimental octanol/water partition coefficient (Log D (oct/w)), P-gp efflux ratios, microsomal stability, and serum protein binding were determined (Table 1 and FIG. 5).

[5] = physchem; conditions: pH 7.4, LogD (oct/w)
Method: as §1

[6] = system: MDCK cells
Method: (§2) Permeabilities were also measured in a Madin-Darby canine kidney (MDCK) permeability assay, in which the passage of the compound through a semipermeable membrane coated with MDCK cells is measured.

[7] = PAMPA permeability of pure compounds under sink conditions; assay type: in vitro ADME; conditions: detergents in donor and acceptor wells (sink conditions); for Papp: PAMPA, read-out: PAMPA Perm.
Method: PAMPA permeability studies on these six pure compounds were performed initially under the same conditions as those used in the original library screen, using a concentration of 1 μM in the donor well based on the estimated concentration of each compound in the original library. […] Without being bound by theory, it was hypothesized that the pure compounds were precipitating in the donor well or adhering to the walls of the apparatus, and that as mixtures they could act as pseudo-detergents (or mutual blocking agents) to help prevent escape from solution (such as through aggregation or adsorption). Therefore, the PAMPA permeabilities of the pure compounds using detergents in the donor and acceptor wells as “sink” conditions were re-investigated. Using these conditions, the permeability trends were similar to those observed in the Libraries. […] The PAMPA permeabilities of the scaffold A compounds were high (large) across the entire A Log P range, whereas the permeabilities of scaffold B compounds trended upward (greater) along with A Log P.

[8] = pH 7.4
Method: as §1

[9] = PAMPA permeability under standard (library screen) conditions; assay type: in vitro ADME; conditions: pure compounds, donor well concentration 20 μM
Text: Libraries A and B were synthesized separately as mixtures using solid phase split-pool peptide synthesis, incorporating peptoid side chains as primary amines using the submonomer method. (Zuckermann R N et al. Efficient Method for the Preparation of Peptoids [Oligo(N-Substituted Glycines)] by Submonomer Solid-Phase Synthesis. J Am Chem Soc. (1992) 114, 10646-7. doi: DOI 10.1021/ja00052a076. PubMed PMID: WOS:A1992KD71700076.) The libraries were cleaved, cyclized in solution, and roughly purified using solid phase extraction on C18 media. Parallel artificial membrane permeability assays (PAMPA) were used to measure passive permeabilities; PAMPA permeabilities within each library varied parabolically as a function of A Log P (FIG. 2A).
PAMPA permeability studies on these six pure compounds were performed initially under the same conditions as those used in the original library screen, […] of each compound in the original library. […] Without being bound by theory, it was hypothesized that the pure compounds were precipitating in the donor well or adhering to the walls of the apparatus, and that as mixtures they could act as pseudo-detergents (or mutual blocking agents) to help prevent escape from solution (such as through aggregation or adsorption). […]

[10] = in vitro; conditions: dog, MDCK, MDCK Perm.
Method: as §2

[11] = Serum protein binding; assay type: in vitro ADME; conditions: bound fractions in rat plasma; for fraction unbound: rat, plasma
[12] = Experimental octanol/water partition coefficient Log D (oct/w); conditions: for logD: octanol/water, pH 7.4, LogD (oct/w)
Method: as §1

[13] = biological target: T1, P-gp; assay: in vitro; conditions: MDCK, P-gp R-value
[14] = mice, oral, pretreatment with 1-aminobenztriazole and GF120918
[15] = mice, oral, pretreatment with GF120918 (P-gp inhibitor)
[16] = in vivo, mice, oral, no inhibitors, read-out: Oral bioavailability, no inhib.
[17] = in vivo, mice, oral, pretreatment with 1-aminobenztriazole (CYP inhibitor), read-out: Oral bioavailability, +CYP inhib.
[18] = pH 6.8, pure compounds, values in text, read-out: Aqueous solubility
[19] = in vivo, mice, oral, pretreatment with 1-aminobenztriazole and GF120918, read-out: Oral bioavailability, +CYP inhib. +P-gp inhib.
[20] = not told, mice, oral, pretreatment with GF120918 (P-gp inhibitor), read-out: Oral bioavailability, +P-gp inhib.
[21] = pH 6.8, Japanese Pharmacopoeia Second Fluid (pH 6.8), read-out: Aq. Sol.

| SMILES | P-gp R-value [1] | remaining at 0.5 h [2] | Microsomal Stability [2] | Oral bioavailability, +CYP inhib. +P-gp inhib. [3, 14] | Oral bioavailability, +P-gp inhib. [3, 15] | bioavailability [3, 16] | bioavailability [3, 17] | Aq. Sol. [4] | solubility [4, 18] | logD [5] | MDCK Perm. ([6]; dog) | Papp [7] | PAMPA Perm. [7] | bioavailability [3, 19] | bioavailability [3, 20] | Papp [10] | fraction unbound [11] | logD [12] | efflux ratio at 10 μM [13] | Serum Protein Binding [11] | other results |
| --- | --- | --- | --- | --- | --- | --- | --- | --- | --- | --- | --- | --- | --- | --- | --- | --- | --- | --- | --- | --- | --- |
| CCN1CC(=O)N[C@@H](CC(C)C)C(=O)N2CCC[C@@H]2C(=O)N(C)[C@@H](CC(C)C)C(=O)N[C@@H](C)C(=O)N(CC2CCOCC2)CC(=O)N[C@@H](Cc2ccccc2)C(=O)N2CCC[C@@H]2C(=O)N(C)[C@@H](CC(C)C)C(=O)N[C@@H](C)C1=O [Compound B09] (cyclo(A[NEtG]L[dP][NMeL]A[Gly(N-CH2-oxan-4-yl)]F[dP][NMeL])) | 10 | 90% | 90% | 14% | 3% | 0.7% | 1.5% | 2.200 mg/mL | 2200 µg/mL (≈ 2020 µM) | 3.6 | 0.4 ×10⁻⁶ cm/s | 0.7 ×10⁻⁶ cm/s | 1.4 ×10⁻⁶ cm/s | – | – | – | – | – | – | – | – |
| CCN1CC(=O)N[C@@H](CC(C)C)C(=O)N2CCC[C@@H]2C(=O)N(C)[C@@H](CC(C)C)C(=O)N[C@@H](C)C(=O)N(CC2CCCCC2)CC(=O)N[C@@H](Cc2ccccc2)C(=O)N2CCC[C@@H]2C(=O)N(C)[C@@H](CC(C)C)C(=O)N[C@@H](C)C1=O [Compound B08] (cyclo([NEtG]L[dP][NMeL]A[NCyclohexylmethylGly]F[dP][NMeL]A)) | 19.2 | 53% | 53% | 101^c % | 13% | – | – | – | 20 µg/mL (≈ 18.4 µM) | > 4.8 | 15.3 ×10⁻⁶ cm/s | 50 ×10⁻⁶ cm/s | >50 ×10⁻⁶ cm/s | > 100% | – | – | – | – | – | – | Oral bioavailability, no inhib. ([3]; mice, oral, no inhibitors): 6%; Oral bioavailability, +CYP inhib. ([3]; mice, oral, pretreatment with 1-aminobenztriazole (CYP inhibitor)): 148^c %; LogD (oct/w) [8]: 4.8; MDCK Perm. [6]: 15 ×10⁻⁶ cm/s; PAMPA membrane transport [9]: some membrane transport was observed |
| CCN1CC(=O)N[C@@H](CC(C)C)C(=O)N(C)[C@@H](C)C(=O)N[C@@H](CC(C)C)C(=O)N2CCC[C@@H]2C(=O)N(CC2CCOCC2)CC(=O)N[C@@H](CC(C)C)C(=O)N(C)[C@@H](C)C(=O)N[C@@H](C)C(=O)N2CCC[C@@H]2C1=O [Compound A03] (cyclo([NEtG]L[NMeA]L[dP][Gly(N-CH2-oxan-4-yl)]L[NMeA]A[dP])) | 6.4 | 64% | 64% | – | – | 1% | 2% | 1.900 mg/mL | 1900 µg/mL (≈ 1870 µM) | – | – | 18 ×10⁻⁶ cm/s | 17.2 ×10⁻⁶ cm/s | 39% | 4% | 0.4 ×10⁻⁶ cm/s | 0.31 | 2.9 | 6 | – | bioavailability ([3]; in vivo, 30 mg/kg, oral dose 30 mg/kg, no inhibitors, based on AUC at 1 mg/kg IV dose, read-out: BA): 11.5%; bioavailability ([3]; in vivo, 100 mg/kg, oral dose 100 mg/kg, no inhibitors, based on AUC at 1 mg/kg IV dose, read-out: BA): 22.1%; bioavailability ([3]; in vivo, 200 mg/kg, oral dose 200 mg/kg, no inhibitors, based on AUC at 1 mg/kg IV dose, read-out: BA): 49.8%; BA ([3]; oral dose 3 mg/kg, no inhibitors, based on AUC at 1 mg/kg IV dose): 1% and 0.99%; BA ([3]; oral dose 200 mg/kg, no inhibitors, based on AUC at 1 mg/kg IV dose): 50% |
| CCN1CC(=O)N[C@@H](CC(C)C)C(=O)N2CCC[C@@H]2C(=O)N(C)[C@@H](CC(C)C)C(=O)N[C@@H](C)C(=O)N(CC2CCOCC2)CC(=O)N[C@@H](C)C(=O)N2CCC[C@@H]2C(=O)N(C)[C@@H](CC(C)C)C(=O)N[C@@H](C)C1=O [Compound B03] (cyclo(A[NEtG]L[dP][NMeL]A[Gly(N-CH2-oxan-4-yl)]A[dP][NMeL])) | – | 94% | 94% | – | – | – | – | 1.900 mg/mL | 1900 µg/mL (≈ 1870 µM) | – | – | – | – | – | – | 0.3 ×10⁻⁶ cm/s | 0.43 | 2.1 | 1.4 | 56% | – |
| CCN1CC(=O)N[C@@H](CC(C)C)C(=O)N(C)[C@@H](C)C(=O)N[C@@H](CC(C)C)C(=O)N2CCC[C@@H]2C(=O)N(CC2CCOCC2)CC(=O)N[C@@H](CC(C)C)C(=O)N(C)[C@@H](C)C(=O)N[C@@H](Cc2ccccc2)C(=O)N2CCC[C@@H]2C1=O [Compound A09] (cyclo([NEtG]L[NMeA]L[dP][Gly(N-CH2-oxan-4-yl)]L[NMeA]F[dP])) | 46.9 | 67% | 67% | 105^c % | – | 2% | 5% | 0.600 mg/mL | 600 µg/mL (≈ 550 µM) | – | – | 35 ×10⁻⁶ cm/s | 35.7 ×10⁻⁶ cm/s | > 100% | 22% | 3.1 ×10⁻⁶ cm/s | 0.01 | 4.1 | 43 | 98% | solubility [4, 21]: 640 µg/mL (≈ 586 µM); PAMPA membrane transport [9]: some membrane transport was observed; LogD (oct/w) ([12]; pH 7.4): >4.1 |
| CCN1CC(=O)N[C@@H](CC(C)C)C(=O)N(C)[C@@H](C)C(=O)N[C@@H](CC(C)C)C(=O)N2CCC[C@@H]2C(=O)N(CC2CCCCC2)CC(=O)N[C@@H](CC(C)C)C(=O)N(C)[C@@H](C)C(=O)N[C@@H](Cc2ccccc2)C(=O)N2CCC[C@@H]2C1=O [Compound A08] (cyclo(F[dP][NEtG]L[NMeA]L[dP][NCyclohexylmethylGly]L[NMeA])) | – | 33% | 33% | – | – | 5% | 31% | 0.070 mg/mL | 70 µg/mL (≈ 64.3 µM) | – | 24.7 ×10⁻⁶ cm/s | 18 ×10⁻⁶ cm/s | 18.8 ×10⁻⁶ cm/s | 59% | 7% | 25 ×10⁻⁶ cm/s | – | 4.1 | – | 99% and >99.8% | solubility [4, 21]: 6.8 µg/mL (≈ 6.24 µM) |
